Measurements reported in publication PMC10257182, “Discovery of senolytics using machine learning” (Nature Communications, 2023).
pIC50: −log10 of the molar value. Values joined by “and” are separate entries in the source; they are usually repeats but may differ in a detail not shown here. Equal entries are not always repeated. Where two headings read alike, the source gives them in different places.

Experiments:
Format in all cases: cell-based, human
[1] = system: IMR90 cells at passage 27 (replicative senescence); experiment: Cell survival assay using crystal violet staining, replicative senescence; details: for % Cell Survival: Replicative Senescence (RS) cells, individual replicate values, Control DMSO = 100
From the text: IMR90 (CCL-186) human foetal lung fibroblasts and A549 (CCL-185) human lung adenocarcinoma cells were obtained from the American Type Culture Collection (ATCC, Manassas, VA). The cell lines were confirmed to be mycoplasma negative (Lonza MycoAlert, cat #LT07-118). IMR90 ER:RAS is a derivative of IMR90 cells expressing a switchable version of oncogenic H-Ras[84]. IMR90 ER:RAS and A549 cells were maintained in Dulbecco’s Modified Eagle Medium (DMEM, ThermoFisher) supplemented with foetal bovine serum (10%), L-glutamine (2 mM, ThermoFisher), and antibiotic-antimycotic solution (1%, ThermoFisher) and incubated under standard tissue culture conditions (37 °C and 5% CO2). For induction of the senescent phenotype, IMR90-ER:RAS cells were cultured in hydroxytamoxifen (4-OHT) (Sigma) added media at 100 nM final concentration. IMR90 were kept in culture for over 27 passages for replicative senescence. Cells were tested for mycoplasma on a regular basis.
Equal numbers of control and senescent cells were plated at high density on multiwell plates just before senolytic treatment addition. After treatment, cells were fixed on 0.5% glutaraldehyde (Sigma) and then dried at RT overnight. Then, wells were stained with crystal violet solution for 3 h, washed and dried. Once they were completely dry, the plates were scanned for records. Quantification was performed extracting the staining with 1% acetic acid and measuring the final solution by absorbance at 595 nm.

[2] = system: A549 cells treated with 100 μM etoposide; experiment: Cell survival assay using crystal violet staining, TIS, senescent cells; details: for % Cell Survival: Etoposide-treated (senescent) cells, Control DMSO = 100, single replicates (SUP FIG 9E)
Procedure: Equal numbers of control and senescent cells were plated at high density on multiwell plates just before senolytic treatment addition. After treatment, cells were fixed on 0.5% glutaraldehyde (Sigma) and then dried at RT overnight. Then, wells were stained with crystal violet solution for 3 h, washed and dried. Once they were completely dry, the plates were scanned for records. Quantification was performed extracting the staining with 1% acetic acid and measuring the final solution by absorbance at 595 nm. […]
cells per condition is indicated. (d) Cell survival assay measuring the senolytic effect in lung cancer senescent cells. The panels show a representative crystal violet staining of tissue culture dishes of confluent A549 cells treated with 100 μM etoposide and control A549 cells, all treated with 10 nM oleandrin, ouabain and periplocin, and DMSO as vehicle control for 72 hours as indicated. (e) Graph representing the cell survival by quantification of the crystal violet staining of the experiment described in (d), as described in Methods. Data represented as individual datapoints, and bars and error bars representing the mean ± SEM of 14 independent experiments. Statistical analysis was performed using a one-way ANOVA (Tukey’s test) for multiple comparisons. […]
Scale bars represent 100 μm. ns = not significant, * = p < 0.05, ** = p < 0.01, *** = p < 0.001, **** = p < 0.0001. Source data are provided as a Source Data file.

[3] = system: senescent IMR90 ER:RAS cells (4-OHT-induced); experiment: Nuclei count (Hoechst, high content imaging) senolytic assay, oncogene-induced senescence (OIS) model, senescent cells; details: for viability at 10 µM / viability at 4.677 µM / viability at 2.188 µM / viability at 1 µM / viability at 0.4677 µM / viability at 0.2188 µM / viability at 0.1 µM / viability at 0.04677 µM / viability at 0.02188 µM / viability at 0.01 µM / pIC50: Homo sapiens; for pIC50: IMR-90, OIS model, 4-OHT-induced IMR90 ER:RAS, nuclei count, 72 h; for dose showing the clearest / optimal senolytic effect: Hoechst nuclei count, marginal effect on normal cells
In short: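 We compared total nuclei counts between senescent and non-senescent IMR90 ER:RAS cells after 72 h compound exposure (10 nM–10 μM). Hoechst staining followed fixation and permeabilisation; ouabain served as senolytic positive control.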

[4] = IMR-90, 72 h, Senescent, log (dose) [M] -5, 72 h, mean n=3 (Fig 3C), read-out: Mean % Cell Survival
[5] = IMR-90, 72 h, Senescent, log (dose) [M] -5.33, 72 h, mean n=3 (Fig 3C), read-out: Mean % Cell Survival
[6] = IMR-90, 72 h, Senescent, log (dose) [M] -5.66, 72 h, mean n=3 (Fig 3C), read-out: Mean % Cell Survival
[7] = IMR-90, 72 h, Senescent, log (dose) [M] -6, 72 h, mean n=3 (Fig 3C), read-out: Mean % Cell Survival
[8] = IMR-90, 72 h, Senescent, log (dose) [M] -6.33, 72 h, mean n=3 (Fig 3C), read-out: Mean % Cell Survival
[9] = IMR-90, 72 h, Senescent, log (dose) [M] -6.66, 72 h, mean n=3 (Fig 3C), read-out: Mean % Cell Survival
[10] = IMR-90, 72 h, Senescent, log (dose) [M] -7, 72 h, mean n=3 (Fig 3C), read-out: Mean % Cell Survival
[11] = IMR-90, 72 h, Senescent, log (dose) [M] -7.33, 72 h, mean n=3 (Fig 3C), read-out: Mean % Cell Survival
[12] = IMR-90, 72 h, Senescent, log (dose) [M] -7.66, 72 h, mean n=3 (Fig 3C), read-out: Mean % Cell Survival
[13] = IMR-90, 72 h, Senescent, log (dose) [M] -8, 72 h, mean n=3 (Fig 3C), read-out: Mean % Cell Survival

In the case of `CO[C@H]1C[C@H](O[C@H]2CC[C@@]3(C)[C@H](CC[C@@H]4[C@@H]3CC[C@]3(C)[C@@H](C5=CC(=O)OC5)[C@@H](OC(C)=O)C[C@]43O)C2)O[C@@H](C)[C@@H]1O` [Oleandrin, oleandrin], the “Mean (cell survival, Tukey test details)” value ([1]; FIG 4C, RS cells, mean of n=12 as fraction of Young DMSO = 1) was 0.4453, the “% Cell Survival” value ([1]; FIG 4C) was 54.5% and 40.7% and 48% and 38.1% and 50.7% and 43.4% and 31.1% and 55% and 50.3% and 37.4% and 44.9% and 40.3% and the “cellular content in senescent cultures (crystal violet), in words” value ([1]; replicative senescence IMR90, 10 nM, 72 h) was “significant reduction in cellular content”. For the same compound, the “cellular content in senescent cultures (crystal violet), in words” value ([2]; A549 TIS with etoposide, 10 nM, 72 h) was “significant reduction in cellular content”, the “% Cell Survival” value [2] was 39.4% and 53.4% and 51.6% and 7.8% and 48.5% and 38.4% and 46.7% and 32.6% and 33.1% and 7.9% and 36.2% and 37.5% and 30.5% and 41.5% and the viability at 10 µM [3, 4] was 2.6%. It also gave a viability at 4.677 µM [3, 5] of 4.06%, a viability at 2.188 µM [3, 6] of 5.74% and a viability at 1 µM [3, 7] of 4.49%. It also gave a viability at 0.4677 µM [3, 8] of 5.02%, a viability at 0.2188 µM [3, 9] of 3.64% and a viability at 0.1 µM [3, 10] of 3.83%. The viability at 0.04677 µM [3, 11] was 6.59%, the viability at 0.02188 µM [3, 12] was 13.4% and the viability at 0.01 µM [3, 13] was 87.9%. For the same compound, the viability at 10 µM ([3]; IMR-90, senescence, log (dose) [M] -5, individual replicates (Fig 3D), read-out: % Cell Survival) was 3.12%, the viability at 4.677 µM ([3]; IMR-90, senescence, log (dose) [M] -5.33, individual replicates (Fig 3D), read-out: % Cell Survival) was 4.77% and the viability at 2.188 µM ([3]; IMR-90, senescence, log (dose) [M] -5.66, individual replicates (Fig 3D), read-out: % Cell Survival) was 7.52%. It also gave a viability at 1 µM ([3]; IMR-90, senescence, log (dose) [M] -6, individual replicates (Fig 3D), read-out: % Cell Survival) of 5.5%, a viability at 0.4677 µM ([3]; IMR-90, senescence, log (dose) [M] -6.33, individual replicates (Fig 3D), read-out: % Cell Survival) of 4.4% and a viability at 0.2188 µM ([3]; IMR-90, senescence, log (dose) [M] -6.66, individual replicates (Fig 3D), read-out: % Cell Survival) of 4.04%. The viability at 0.1 µM ([3]; IMR-90, senescence, log (dose) [M] -7, individual replicates (Fig 3D), read-out: % Cell Survival) was 4.95%, the viability at 0.02188 µM ([3]; IMR-90, senescence, log (dose) [M] -7.66, individual replicates (Fig 3D), read-out: % Cell Survival) was 12.3% and the pIC50 [3] was 7.85. For the same compound, the “dose showing the clearest / optimal senolytic effect” value ([3]; OIS IMR90 ER:RAS) was 21.5 nM, the “senolytic activity (in words)” value ([3]; experimental screen, OIS IMR90 ER:RAS) was “clear senolytic action” and the “senolytic index (SI)” value ([3]; ratio between the IC50 of control cells and the IC50 of senescent cells, OIS IMR90 ER:RAS) was 5.8.
With `C[C@@H]1O[C@@H](O[C@H]2C[C@@H](O)[C@]3(CO)[C@H]4[C@H](O)C[C@]5(C)[C@@H](C6=CC(=O)OC6)CC[C@]5(O)[C@@H]4CC[C@]3(O)C2)[C@H](O)[C@H](O)[C@H]1O` [Ouabain, ouabain, reference compound] the “% Cell Survival” value ([1]; FIG 4C) was 94.8% and 97.2% and 95.8% and 90.6% and 106.9% and 98.6% and 108.7% and 109.7% and 103.6% and 106.2% and 99.7%, the “% Cell Survival” value [2] was 83.2% and 99.9% and 99.3% and 62.7% and 92.6% and 102.5% and 88.1% and 123.1% and 123.9% and 68.2% and 105.6% and 95.4% and 114.5% and 91.7% and the viability at 10 µM [3, 4] was 2.57%. For the same compound, the viability at 4.677 µM [3, 5] was 2.79%, the viability at 2.188 µM [3, 6] was 3.51% and the viability at 1 µM [3, 7] was 4.22%. It also gave a viability at 0.4677 µM [3, 8] of 4.07%, a viability at 0.2188 µM [3, 9] of 2.69% and a viability at 0.1 µM [3, 10] of 4.75%. It also gave a viability at 0.04677 µM [3, 11] of 11.8%, a viability at 0.02188 µM [3, 12] of 73% and a viability at 0.01 µM [3, 13] of 89.4%. For the same compound, the viability at 10 µM ([3]; IMR-90, senescence cells, log (dose) [M] -5, read-out: % Cell Survival) was 2.5%, the viability at 4.677 µM ([3]; IMR-90, senescence cells, log (dose) [M] -5.33, read-out: % Cell Survival) was 2.14% and the viability at 2.188 µM ([3]; IMR-90, senescence cells, log (dose) [M] -5.66, read-out: % Cell Survival) was 4.05%. It also gave a viability at 1 µM ([3]; IMR-90, senescence cells, log (dose) [M] -6, read-out: % Cell Survival) of 4.29%, a viability at 0.4677 µM ([3]; IMR-90, senescence cells, log (dose) [M] -6.33, read-out: % Cell Survival) of 5.48% and a viability at 0.2188 µM ([3]; IMR-90, senescence cells, log (dose) [M] -6.66, read-out: % Cell Survival) of 3.1%. For the same compound, the viability at 0.1 µM ([3]; IMR-90, senescence cells, log (dose) [M] -7, read-out: % Cell Survival) was 4.88%, the viability at 0.04677 µM ([3]; IMR-90, senescence cells, log (dose) [M] -7.33, read-out: % Cell Survival) was 11.2% and the viability at 0.02188 µM ([3]; IMR-90, senescence cells, log (dose) [M] -7.66, read-out: % Cell Survival) was 70.8%. For the same compound, the viability at 0.01 µM ([3]; IMR-90, senescence cells, log (dose) [M] -8, read-out: % Cell Survival) was 86.1%, the pIC50 [3] was 7.55 and the “dose showing the clearest / optimal senolytic effect” value ([3]; OIS IMR90 ER:RAS) was 46.4 nM.
